Reference: patent publication US20210318306A1, “Compositions for and Methods of Neutralizing Lipopolysaccharide Toxicity and Methods of Identifying the Same” (priority 2020, published 2021)
Where “and” joins values, the source holds several entries; their conditions need not be identical. Equal values may be shown once. Entries after “also recorded” stand apart in the source; their conditions may differ.

Experiments:
Type in all cases: cell-based, human
HEK-Blue hTLR4 cells [1] = test: IL-8 dose response in HEK-Blue hTLR4 cells with P.g. LPS 1 μg/ml and 3X-24X dilutions of simple solutions (Example 4)
Experimental: (§1) HEK-Blue hTLR4 cells (Invivogen, cat #hkb-htlr4) were cultured in a DMEM culture medium supplemented with 10% FBS and 1% penstrep at 37° C. with 5% CO2. LPS from Porphyromonas gingivalis (P.g. LPS; Invivogen, cat #tlrl-pglps and cat #tlrl-ppglps) activates TLR4 receptor and downstream inflammation in HEK-Blue hTLR4 cells. P.g. LPS is co-incubated with HEK-Blue hTLR4 cells in the absence or presence of the simple solutions. Standard and ultrapure P.g. LPS were both used due to ultrapure being a specific ligand for the TLR4 receptor while standard LPS is a ligand for both TLR2 and TLR4.
(§2) The simple solutions a) Zinc Oxide (ZnO), b) Zinc Citrate (ZnCitrate), c) Zinc Oxide+Zinc Citrate (Dual Zinc; DZ), d) Dual Zinc+Arginine (DZA, zinc oxide, zinc citrate and arginine), and e) L-Arginine (Arg) were diluted at different concentrations with culture medium.
2) experiments using 3×, 6×, 12×, and 24× dilution fold of the simple solutions (see Table 6 below).
(§3) HEK-Blue hTLR4 cells were plated in 96-well plates and grown until confluent at 37° C. and 5% CO2 in HEK-blue selection media (DMEM with 10% FBS, 1% penicillin-streptomycin, and antibiotics for HEK-blue selection (Invivogen, cat #hb-sel)). Cells were co-incubated overnight with varying concentrations of different zinc actives as well as arginine and stimulated with either 0.1 μg/mL standard P. gingivalis LPS or 1 μg/mL ultrapure P. gingivalis LPS. Cell supernatants were collected for human inflammation cytokine panels using Multiplex and ELISA analysis.
(§4) Multiplex analysis was performed using the MILLIPLEX MAP Human Cytokine/Chemokine Magnetic Bead Panel—Immunology Multiplex Assay for IL-1, IL-6, IL-8, TNFα, and GM-CSF (Millipore Sigma, cat #HCYTOMAG-60K).
In order to understand the role of Arginine in the inhibition of LPS induced inflammation, a dose response experiment was performed using ultrapure P.g. LPS, which only specifically targets TLR4 receptor, in order to maximize the activation of NF-kB and expression of IL-8.
The testing samples were prepared as the stock simple solutions. […] The first serial dilution was made 3 times with water, a dilution factor simulating dilution of toothpastes while brushing. Additional serial dilutions were made by 2-fold of the first dilution to study dose response effect.

HEK-TLR4 cells = test: P. gingivalis LPS-induced cytokine secretion by HEK-TLR4 cells, Luminex 5-plex magnetic bead panel (Example 2)
Experimental: Commercially available HEK-Blue TLR4 cells (Invitrogen) are recombinant HEK 293 cells that have been transformed with DNA that encodes TLR4 that is expressed and present on the cell surface. HEK-Blue TLR4 cells are grown ion culture and used can be used in experimental assays to identify test compositions that modulate inflammation pathways stimulated by TLR4-LPS interaction.
Initial for LPS and zinc-containing starting solutions were made as follows. An LPS starting solution was prepared as follows: a […] solution of LPS was prepared using 2 μl of 1 mg/ml LPS and 10 ml media. Multiple zinc starting solutions were each prepared using media as diluent: a) 20 mM zinc oxide, b) 2 mM zinc oxide, c) 20 mM zinc citrate, d) 2 mM zinc citrate, e) 20 mM of a composition containing a 2:1 mixture of zinc oxide and zinc citrate and f) 2 mM of a composition containing a 2:1 mixture of zinc oxide and zinc citrate. The starting solutions were used to prepare various test samples.
In some embodiments, control assays include “Untreated”, in which eight Zinc test samples without LPS were made: […], 10 mM zinc oxide+zinc citrate, 1 mM zinc oxide+zinc citrate, 10 mM zinc oxide+zinc citrate+arginine and 1 mM zinc oxide+zinc citrate+arginine, The test samples without LPS were prepared by diluting the zinc starting solutions with equal parts media. Eight test samples with LPS were made: […], […], […], […], 10 mM zinc oxide+zinc citrate LPS, 1 mM zinc oxide+zinc citrate LPS, 10 mM zinc oxide+zinc citrate+arginine LPS and 1 mM zinc oxide+zinc citrate+arginine LPS. The test samples with LPS were prepared by diluting the zinc starting solutions with equal parts LPS starting solution.
Cells were grown to 70-80% confluent in a 96 well plate. 100 uL of a test sample was added to a well. Cells with test sample were incubated overnight. Media was collected from each well and transferred to a corresponding well in a 96-well plate. Assays to measure proinflammatory cytokines including IL-8 secretion were performed for each well.
Inflammation markers in supernatants collected from HEK-Blue cells co-incubated with Zinc and Zinc+LPS were quantified using Luminex Magpix instrument (MAGPIX-XPON42) and human 5-plex cytokine/chemokine Magnetic bead panel (Millipore HCYTOMAG-60K). The human 5-plex cytokine/chemokine Magnetic bead panel quantifies TNF-α, IL-6, IL-8, IL-1β and GM-CSF.
The Luminex Kit Procedure outlined in the instruction manual for each separate Luminex kit was performed on the supernatants collected from the HEK-Blue cells co-incubated with Zinc test solutions without LPS and Zinc test solutions plus LPS. Quality controls in range for the specified analytes were performed to ensure levels were within the acceptable range.
To run the Luminex Test, all necessary calibration and verification procedures as outlined by the MagPix and xPonent softwares were completed and the appropriate protocol for the assay was selected. The standards were verified to be correct and complete the plate layout of samples was verified. […] The “Avg. Result” was identified in the results generated.
Experiments were conducted to identify compositions that inhibit P. gingivalis LPS-induced IL-8, TNFα, GM-CSF, IL-1β and IL-6 by HEK-TLR4 cells. HEK-TLR4 cells in 96 well plates were contacted with 100 μl samples. IL-8, TNFα, GM-CSF, IL-1β and IL-6 were detected as described above.

HEK-Blue hTLR4 cells [2] = test: IL-8 in HEK-Blue hTLR4 cell supernatants with standard P.g. LPS and simple solutions at 1 mM vs 10 mM total zinc (Example 4); conditions: for IL-8 Concentration, replicate: listed as ZnCitrate
Experimental: as §1, §2
1) experiments using 1 mM vs 10 mM total zinc; and
as §3, §4
Testing was performed using total zinc concentrations to normalize the amount the zinc applied in the cell culture medium during co-incubation. Two concentrations of total zinc ion are based on the potential amount of zinc retained on the mouth soft tissue surface.

[3] = 3X dilution of stock simple solution (Table 6) with P.g. LPS (1 μg/ml)
[4] = 6X dilution of stock simple solution (Table 6) with P.g. LPS (1 μg/ml)
[5] = 12X dilution of stock simple solution (Table 6) with P.g. LPS (1 μg/ml)
[6] = 24X dilution of stock simple solution (Table 6) with P.g. LPS (1 μg/ml)
[7] = 300 ppm with 0.1μ/ml P. gingivalis LPS
[8] = 600 ppm with 0.1μ/ml P. gingivalis LPS
[9] = P. gingivalis LPS, 300 and 600 ppm, listed as zinc citrate
[10] = 1 mM total zinc with standard P.g. LPS (0.1 μg/ml)
[11] = 10 mM total zinc with standard P.g. LPS (0.1 μg/ml)

## N=C(N)NCCC[C@H](N)C(=O)O [Arg, L-Arginine]
HEK-Blue hTLR4 cells [1]; [3]
  IL-8 Concentration, Average: 236.6 pg/mL
  IL-8 Concentration, replicate: 248.5 pg/mL and 224.7 pg/mL
HEK-Blue hTLR4 cells [1]; [4]
  IL-8 Concentration, Average: 1480.7 pg/mL
  IL-8 Concentration, replicate: 1649.9 pg/mL and 1311.5 pg/mL
HEK-Blue hTLR4 cells [1]; [5]
  IL-8 Concentration, Average: 2903.3 pg/mL
  IL-8 Concentration, replicate: 2891.2 pg/mL and 2915.5 pg/mL
HEK-Blue hTLR4 cells [1]; [6]
  IL-8 Concentration, Average: 3020.6 pg/mL
  IL-8 Concentration, replicate: 3003.8 pg/mL and 3037.4 pg/mL
HEK-Blue hTLR4 cells [1]; at 3 times dilution of the stock simple solution
  inhibition of IL-8 (in words): strong inhibition
HEK-Blue hTLR4 cells [1]; when dilution folds increase
  inhibition of IL-8 (in words): lose the inhibition of IL-8 gradually

## O=C([O-])CC(O)(CC(=O)[O-])C(=O)[O-].O=C([O-])CC(O)(CC(=O)[O-])C(=O)[O-].[Zn+2].[Zn+2].[Zn+2] [ZnC, zinc citrate]
HEK-TLR4 cells; [7]
  GM-CSF (raw data, single replicate): <3.2 pg/ml (3×) and 0.633 pg/ml
  IL-1β (raw data, single replicate): 0.4044 pg/mL and 0.5186 pg/mL and 0.1227 pg/mL and 1.331 pg/mL
  IL-6 (raw data, single replicate): <3.2 pg/ml (3×) and 0.5932 pg/ml
  IL-8 (average result): 395.2 pg/mL
  IL-8 (raw data, single replicate): 364.5 pg/mL and 386.8 pg/mL and 285.4 pg/mL and 544.1 pg/mL
  TNF-α (average result): 3.857 pg/mL
  TNFα (raw data, single replicate): 3.113 pg/mL and 2.696 pg/mL and 2.325 pg/mL and 7.294 pg/mL
HEK-TLR4 cells; 300 ppm, without LPS
  GM-CSF (raw data, single replicate): <3.2 pg/mL
  IL-1β (raw data, single replicate): 0.01381 pg/mL and 0.1227 pg/mL and 0.2344 pg/mL and 0.4044 pg/mL
  IL-6 (raw data, single replicate): <3.2 pg/mL
  IL-8 (average result): 294 pg/mL
  IL-8 (raw data, single replicate): 254.6 pg/mL and 237.5 pg/mL and 296.9 pg/mL and 386.9 pg/mL
  TNF-α (average result): 1.616 pg/mL
  TNFα (raw data, single replicate): 1.244 pg/mL and 1.675 pg/mL and 1.373 pg/mL and 2.173 pg/mL
HEK-TLR4 cells; [8]
  GM-CSF (raw data, single replicate): <3.2 pg/mL
  IL-1β (raw data, single replicate): 0.6335 pg/ml and 0.1227 pg/ml (2×) and 0.2344 pg/ml
  IL-6 (raw data, single replicate): <3.2 pg/mL
  IL-8 (average result): 326.3 pg/mL
  IL-8 (raw data, single replicate): 447.3 pg/mL and 287.8 pg/mL and 291.5 pg/mL and 278.6 pg/mL
  TNF-α (average result): 1.596 pg/mL
  TNFα (raw data, single replicate): 2.587 pg/mL and 1.416 pg/mL and 1.266 pg/mL and 1.116 pg/mL
HEK-TLR4 cells; 600 ppm, without LPS
  GM-CSF (raw data, single replicate): 0.1483 pg/ml and 0.07253 pg/ml and <3.2 pg/ml (2×)
  IL-1β (raw data, single replicate): 0.9228 pg/mL and 0.2908 pg/mL and 0.01381 pg/mL and 0.1227 pg/mL
  IL-6 (raw data, single replicate): 0.3248 pg/ml and <3.2 pg/ml (3×)
  IL-8 (average result): 293.9 pg/mL
  IL-8 (raw data, single replicate): 434.5 pg/mL and 262.1 pg/mL and 234.6 pg/mL and 244.6 pg/mL
  TNF-α (average result): 1.172 pg/mL
  TNFα (raw data, single replicate): 2.064 pg/mL and 1.073 pg/mL and 0.6069 pg/mL and 0.9454 pg/mL
HEK-TLR4 cells; P. gingivalis LPS, 300 and 600 ppm, listed as Zinc citrate
  effect on LPS-induced TNFα (in words): more profound inhibition
HEK-TLR4 cells; [9]
  effect on LPS-induced TNFα (in words): significantly reduced
  effect on induction of IL-8 by LPS (in words): significantly reduced; also recorded: profound inhibition
HEK-Blue hTLR4 cells [2]; [10]
  IL-8 Concentration, Average: 34.9 pg/mL
  IL-8 Concentration, replicate: 55.35 pg/mL and 27.95 pg/mL and 26.65 pg/mL and 29.55 pg/mL
HEK-Blue hTLR4 cells [2]; [11]
  IL-8 Concentration, Average: 10.6 pg/mL
  IL-8 Concentration, replicate: 11.85 pg/ml (2×) and 3.15 pg/ml
HEK-Blue hTLR4 cells [2]; at both 1 mM and 10 mM
  IL-8 induced by co-incubation with P.g. LPS (in words): reduced
HEK-Blue hTLR4 cells [1]; [3]
  IL-8 Concentration, Average: 32.1 pg/mL
HEK-Blue hTLR4 cells [1]; 3X dilution of stock simple solution (Table 6) with P.g. LPS (1 μg/ml), listed as ZnCitrate
  IL-8 Concentration, replicate: 35.4 pg/mL and 28.9 pg/mL
HEK-Blue hTLR4 cells [1]; [4]
  IL-8 Concentration, Average: 38.0 pg/mL
HEK-Blue hTLR4 cells [1]; 6X dilution of stock simple solution (Table 6) with P.g. LPS (1 μg/ml), listed as ZnCitrate
  IL-8 Concentration, replicate: 38.1 pg/mL and 37.9 pg/mL
HEK-Blue hTLR4 cells [1]; [5]
  IL-8 Concentration, Average: 51.9 pg/mL
HEK-Blue hTLR4 cells [1]; 12X dilution of stock simple solution (Table 6) with P.g. LPS (1 μg/ml), listed as ZnCitrate
  IL-8 Concentration, replicate: 55.6 pg/mL and 48.1 pg/mL
HEK-Blue hTLR4 cells [1]; [6]
  IL-8 Concentration, Average: 86.6 pg/mL
HEK-Blue hTLR4 cells [1]; 24X dilution of stock simple solution (Table 6) with P.g. LPS (1 μg/ml), listed as ZnCitrate
  IL-8 Concentration, replicate: 88.5 pg/mL and 84.8 pg/mL
